Laboratory results: the supplement of paper PMC10307832

Experiments:
Assay in all cases: relative viability (nuclei count vs DMSO), 5 days (fraction); higher = more cells survive
ALW-II-49-7 + Trametinib = compound: Cc1ccc(C(=O)Nc2cccc(C(F)(F)F)c2)cc1Nc1cncc(C(N)=O)c1 [ALW-II-49-7] + CC(=O)Nc1cccc(-n2c(=O)n(C3CC3)c(=O)c3c(Nc4ccc(I)cc4F)n(C)c(=O)c(C)c32)c1 [Trametinib] (partner 0.02 µM)
How it was run: (§1)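 The day after seeding in 1536-well plates, lung cancer cell lines were treated by pin tool with a single drug, or with a fixed anchor-drug dose together with five library-drug doses (not always all listed) in √10 steps. After 5 days, a combined fix-and-stain solution (final 0.05% Triton X-100, 1% formaldehyde, 1 ug/ml Hoechst) was added. Nuclei counted on 4× images gave relative viability as treated counts over vehicle counts, reported as the median of duplicate plates.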

ALW-II-49-7 + OSI-027 = compound: Cc1ccc(C(=O)Nc2cccc(C(F)(F)F)c2)cc1Nc1cncc(C(N)=O)c1 [ALW-II-49-7] + COc1cccc2cc(-c3nc([C@H]4CC[C@H](C(=O)O)CC4)n4ncnc(N)c34)[nH]c12 [OSI-027] (partner 0.5 µM)
How it was run: as §1

Dasatinib + Phenformin = compound: Cc1nc(Nc2ncc(C(=O)Nc3c(C)cccc3Cl)s2)cc(N2CCN(CCO)CC2)n1 [Dasatinib] + N=C(N)NC(=N)NCCc1ccccc1 [Phenformin] (partner 250 µM)
How it was run: as §1

Dasatinib + Olaparib = compound: Cc1nc(Nc2ncc(C(=O)Nc3c(C)cccc3Cl)s2)cc(N2CCN(CCO)CC2)n1 [Dasatinib] + O=C(c1cc(Cc2n[nH]c(=O)c3ccccc23)ccc1F)N1CCN(C(=O)C2CC2)CC1 [Olaparib] (partner 8 µM)
How it was run: as §1

Cell Line	relative viability (ALW-II-49-7 + Trametinib; first compound 0.08 µM)	relative viability (ALW-II-49-7 + Trametinib; first compound 0.253 µM)	relative viability (ALW-II-49-7 + Trametinib; first compound 0.8 µM)	relative viability (ALW-II-49-7 + Trametinib; first compound 2.53 µM)	relative viability (ALW-II-49-7 + Trametinib; first compound 8 µM)	relative viability (ALW-II-49-7 + OSI-027; first compound 0.08 µM)	relative viability (ALW-II-49-7 + OSI-027; first compound 0.253 µM)	relative viability (ALW-II-49-7 + OSI-027; first compound 0.8 µM)	relative viability (ALW-II-49-7 + OSI-027; first compound 2.53 µM)	relative viability (ALW-II-49-7 + OSI-027; first compound 8 µM)	relative viability (Dasatinib + Phenformin; first compound 0.005 µM)	relative viability (Dasatinib + Phenformin; first compound 0.01581 µM)	relative viability (Dasatinib + Phenformin; first compound 0.05 µM)	relative viability (Dasatinib + Phenformin; first compound 0.1581 µM)	relative viability (Dasatinib + Phenformin; first compound 0.5 µM)	relative viability (Dasatinib + Olaparib; first compound 0.005 µM)	relative viability (Dasatinib + Olaparib; first compound 0.01581 µM)	relative viability (Dasatinib + Olaparib; first compound 0.05 µM)	relative viability (Dasatinib + Olaparib; first compound 0.1581 µM)	relative viability (Dasatinib + Olaparib; first compound 0.5 µM)
NCI-H1355	0.371	0.467	0.474	0.384	0.438	0.372	0.404	0.363	0.364	0.353	0.435	0.391	0.432	0.352	0.325	0.747	0.541	0.73	0.582	0.442
NCI-H1395	0.906	1.1	1.3	–	0.938	0.593	0.69	0.736	0.677	0.62	0.398	0.435	0.369	0.305	0.304	0.431	0.46	0.376	0.355	0.311
NCI-H1437	0.486	0.573	0.332	0.512	0.509	0.835	0.744	0.751	0.877	0.75	0.322	0.207	0.261	0.222	0.148	0.636	0.624	0.656	0.566	0.532
NCI-H1650	0.438	0.688	0.557	0.666	0.78	0.444	0.412	0.451	0.631	0.687	0.401	0.302	0.319	0.217	0.178	0.741	0.614	0.571	0.442	0.282
NCI-H1651	0.839	0.772	0.824	0.781	0.808	0.668	0.629	0.543	0.687	0.572	0.355	0.285	0.308	0.35	0.241	0.178	0.175	0.174	0.17	0.16
NCI-H1666	0.864	0.927	0.865	0.948	0.803	0.905	0.869	0.778	1.02	0.816	0.517	0.26	0.548	0.498	0.451	0.756	0.752	0.73	0.782	0.676
NCI-H1734	0.641	0.749	0.668	0.622	0.593	0.602	0.652	0.55	0.556	0.534	0.314	0.328	0.288	0.249	0.235	0.601	0.479	0.509	0.367	0.196
NCI-H1755	0.724	0.879	0.786	0.747	0.681	0.789	0.728	0.7	0.67	0.532	0.477	0.46	0.423	0.352	0.218	0.806	0.577	0.68	0.408	0.279
NCI-H1792	0.583	0.436	0.42	0.369	0.471	0.805	0.774	0.609	0.149	0.376	0.198	0.394	0.415	0.135	0.0671	0.385	0.348	0.411	0.2	0.0885
NCI-H1793	0.365	0.404	0.486	0.409	0.443	0.257	0.301	0.24	0.235	0.248	0.319	0.314	0.313	0.264	0.2	0.69	0.404	0.385	0.367	0.521
NCI-H1915	0.305	0.383	0.334	0.251	0.262	0.662	0.653	0.573	0.49	0.381	0.339	0.313	0.266	0.17	0.164	0.267	0.231	0.235	0.151	0.149
NCI-H1944	0.405	0.427	0.418	0.339	0.405	0.393	0.413	0.397	0.353	0.303	0.185	0.149	0.15	0.154	0.123	0.415	0.298	0.332	0.191	0.135
NCI-H1975	0.384	0.581	0.288	0.367	0.311	0.555	0.785	0.72	0.553	0.486	0.362	0.347	0.348	0.257	0.188	0.707	0.723	0.706	0.448	0.216
NCI-H1993	0.583	0.481	0.648	0.608	0.445	0.486	0.521	0.535	0.601	0.521	0.416	0.487	0.473	0.525	0.554	1.08	1.13	1.23	0.895	0.794
NCI-H2009	0.247	0.32	0.299	0.341	0.266	0.615	0.67	0.532	0.408	0.406	0.554	0.47	0.366	0.206	0.187	0.715	0.731	0.772	0.556	0.127
NCI-H2023	0.468	0.557	0.69	0.503	0.53	0.379	0.44	0.37	0.354	0.3	0.355	0.331	0.291	0.224	0.173	0.43	0.456	0.377	0.378	0.379
